Read-outs that look alike come from different tables or passages of the source.

For data set [1], the target named is T1, KAI2d15 (Castilleja foliolosa, UniProt A0ABD3DF95).
T1 construct: GST fusion (pGEX-4T-1) in E. coli BL21, GST cut with HRV 3C leaving N-terminal Gly-Pro; synthetic codon-optimised gene; catalytic triad S95, D217, H246; entrance M142, M153, M157; genome GenBank JAVIJP000000000
The data set is described as follows: differential scanning fluorimetry, SYPRO Orange. It counts as binding. As to conditions: 20 mM Tris-HCl, 30 mM NaCl, 1 mM TCEP, pH 7.7.

Data set [2] has as its target T2, KAI2d15 (Castilleja foliolosa, UniProt A0ABD3DF95, M143V/M154V/M158V, form not given).
T2 construct: GST fusion (pGEX-4T-1) in E. coli BL21, GST cut with HRV 3C leaving N-terminal Gly-Pro; synthetic codon-optimised gene; catalytic triad S95, D217, H246; entrance M142, M153, M157; genome GenBank JAVIJP000000000
The data set is described as follows: differential scanning fluorimetry, SYPRO Orange. It counts as binding. Particulars: 20 mM Tris-HCl, 30 mM NaCl, 1 mM TCEP, pH 7.7.

The target of a further data set is T3, KAI2d8 (Castilleja foliolosa, UniProt A0ABD3DF32).
T3 construct: GST fusion (pGEX-4T-1) in E. coli BL21, GST cut with HRV 3C leaving N-terminal Gly-Pro; synthetic codon-optimised gene; genome GenBank JAVIJP000000000
T3 sequence (A0ABD3DF32 1-275): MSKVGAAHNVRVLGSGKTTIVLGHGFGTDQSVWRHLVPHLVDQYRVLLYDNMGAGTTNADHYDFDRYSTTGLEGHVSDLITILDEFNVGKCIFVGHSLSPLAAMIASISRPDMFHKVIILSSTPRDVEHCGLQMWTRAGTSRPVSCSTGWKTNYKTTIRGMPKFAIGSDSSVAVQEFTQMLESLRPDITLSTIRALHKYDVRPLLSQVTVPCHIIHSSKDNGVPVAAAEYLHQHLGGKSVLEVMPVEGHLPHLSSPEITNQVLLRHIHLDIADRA
The data set is described as follows: differential scanning fluorimetry, SYPRO Orange. It counts as binding. As to conditions: 20 mM Tris-HCl, 30 mM NaCl, 1 mM TCEP, pH 7.7.

The target of data set [3] is T1, KAI2d15. Description: fluorescent hydrolysis, Michaelis-Menten. It is filed as biochemical.
Another data set concerns T4, KAI2i1.
T4 construct: GST fusion (pGEX-4T-1) in E. coli BL21, GST cut with HRV 3C leaving N-terminal Gly-Pro; synthetic codon-optimised gene; genome GenBank JAVIJP000000000
The data set is described as follows: fluorescent hydrolysis, Michaelis-Menten. It is filed as biochemical, Castilleja foliolosa. The text has this:
fluorescent hydrolysis, Michaelis-Menten on KAI2i1 | Michaelis-Menten experiments using the large fluorescent strigolactone analog Yoshimulactone Green (YLG)

Data set [4] has as its target T2, KAI2d15. The data set is described as follows: fluorescent hydrolysis, Michaelis-Menten. It counts as biochemical.
A further data set relates to T5, KAI2d14.
T5 construct: GST fusion (pGEX-4T-1) in E. coli BL21, GST cut with HRV 3C leaving N-terminal Gly-Pro; synthetic codon-optimised gene; genome GenBank JAVIJP000000000
Description: fluorescent hydrolysis, Michaelis-Menten. It counts as biochemical, Castilleja foliolosa. The text has this:
fluorescent hydrolysis, Michaelis-Menten on KAI2d14 | Michaelis-Menten experiments using the large fluorescent strigolactone analog Yoshimulactone Green (YLG)

Substrate in data set [5]: CCOC(=O)c1ccccc1-c1c2ccc(=O)cc-2oc2cc(OC3C=C(C)C(=O)O3)ccc12
The data set is described as follows: fluorescent hydrolysis, Michaelis-Menten. It is filed as biochemical, Castilleja foliolosa. From the text: fluorescent hydrolysis, Michaelis-Menten on KAI2d8 | Michaelis-Menten experiments using the large fluorescent strigolactone analog Yoshimulactone Green (YLG)

Substrate in data set [6]: CCOC(=O)c1ccccc1-c1c2ccc(=O)cc-2oc2cc(OC3C=C(C)C(=O)O3)ccc12
Description: fluorescent hydrolysis, Michaelis-Menten. It counts as biochemical, Castilleja foliolosa. From the text:
fluorescent hydrolysis, Michaelis-Menten on KAI2d9 | Michaelis-Menten experiments using the large fluorescent strigolactone analog Yoshimulactone Green (YLG)
The source holds these as a separate data set.

T2 sequence (A0ABD3DF95 entry or part of it M143V/M154V/M158V, form open): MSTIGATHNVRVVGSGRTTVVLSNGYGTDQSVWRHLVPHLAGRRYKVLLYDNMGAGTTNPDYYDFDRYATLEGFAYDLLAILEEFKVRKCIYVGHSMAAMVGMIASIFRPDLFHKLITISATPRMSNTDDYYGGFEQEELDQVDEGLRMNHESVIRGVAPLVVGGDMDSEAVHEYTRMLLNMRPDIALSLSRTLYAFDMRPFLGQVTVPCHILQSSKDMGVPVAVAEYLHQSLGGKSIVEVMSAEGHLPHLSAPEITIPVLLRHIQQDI
T1 sequence (A0ABD3DF95 entry or part of it): as the sequence (A0ABD3DF95 entry or part of it M143V/M154V/M158V, form open) above, with V143M, V154M, V158M counted along it

In the case of `CC1=C[C@H](O/C=C2/C(=O)O[C@@H]3C4=C(CCCC4(C)C)C[C@H]23)OC1=O` [5-deoxystrigol], the “differential scanning fluorimetry, SYPRO Orange” value at KAI2d15 [1] is “DSF experiments with four different strigolactone molecules, testing both the variant and the wild-type protein”; on KAI2d15 [2], “mutant protein showed destabilization at lower ligand concentrations when GR24 or 5-deoxystrigol were present”.

For the molecule `CC1=C[C@H](O/C=C2/C(=O)O[C@@H]3c4ccccc4C[C@H]23)OC1=O` [GR24 5DO], the entries for the “differential scanning fluorimetry, SYPRO Orange” value at KAI2d8 and at KAI2d15 [2] (printed only as GR24) were “A weaker but discernible destabilization was noted with KAI2d8” and “mutant protein showed destabilization at lower ligand concentrations when GR24 or 5-deoxystrigol were present”, respectively.

Take `CCOC(=O)c1ccccc1-c1c2ccc(=O)cc-2oc2cc(OC3C=C(C)C(=O)O3)ccc12` (stereo not shown) [Yoshimulactone Green]: the Km at KAI2d15 [3] stood at 0.8 µM; in the data set on KAI2i1, 3.1 ± 0.7 µM; on KAI2d15 [4], 2.4 µM; in the data set on KAI2d14, 1.1 ± 0.3 µM.

With `CC1=CC(OC=C2C(=O)OC3C4=C(CCCC4(C)C)C(O)C23)OC1=O` (stereo not shown) [orobanchol], the “differential scanning fluorimetry, SYPRO Orange” value on KAI2d15 [1] is “wild-type protein destabilized at lower concentrations of strigol or orobanchol”; on KAI2d15 [2], “DSF experiments with four different strigolactone molecules, testing both the variant and the wild-type protein”.

`CC1=C[C@H](O/C=C2/C(=O)O[C@@H]3C4=C(C[C@H]23)[C@@H](O)CCC4(C)C)OC1=O` [strigol]: the “differential scanning fluorimetry, SYPRO Orange” value on KAI2d15 [1] was “wild-type protein destabilized at lower concentrations of strigol or orobanchol”; on KAI2d15 [2] it was “DSF experiments with four different strigolactone molecules, testing both the variant and the wild-type protein”.

B1: KAI2d8 (Castilleja foliolosa) (protein)
chain: MSKVGAAHNVRVLGSGKTTIVLGHGFGTDQSVWRHLVPHLVDQYRVLLYDNMGAGTTNADHYDFDRYSTTGLEGHVSDLITILDEFNVGKCIFVGHSLSPLAAMIASISRPDMFHKVIILSSTPRDVEHCGLQMWTRAGTSRPVSCSTGWKTNYKTTIRGMPKFAIGSDSSVAVQEFTQMLESLRPDITLSTIRALHKYDVRPLLSQVTVPCHIIHSSKDNGVPVAAAEYLHQHLGGKSVLEVMPVEGHLPHLSSPEITNQVLLRHIHLDIADRA
notes: GST fusion (pGEX-4T-1) in E. coli BL21, GST cut with HRV 3C leaving N-terminal Gly-Pro; synthetic codon-optimised gene; genome GenBank JAVIJP000000000
With B1, in data set [5], the Michaelis-Menten constant (Km) was 6.6 ± 0.2 µM and the kcat is 2780 ± 193 s⁻¹.

B2: KAI2d9 (Castilleja foliolosa) (protein)
chain: MSTVGSAHNVQVIGSGETTVVLGHGYGTDQSVWKNLVPHLVDQYKVLLFDNMGAGTTNPDYFDFERYSTLEGYAYDLIAILEEFNVHKCIYVGHSMSAIAGAIASIFRPDLFHKLIMICASPRLTNTGDYYGGFKQEELEQLSGAMESNFQSMAMGRAPLVIGSDLESEAVQEYCRTLFNMRPDISFSVVRTIFALDMRPFLPQVTVPCHIIQSSKDIYVPLSVGEYLHQNLGGKSIVEVMPTQGHLPHLSAPEVTNPVLLRHIQQDIADA
notes: as for B1
B2: in data set [6], the Km is given as 0.5 ± 0.1 µM and the kcat is 600 ± 49 s⁻¹.

Values taken from publication PMC11697714, “Strigolactones initiate the formation of haustorium-like structures in Castilleja” (iScience, 2024).
